Data set [1] has as its system X31 strain of IAV. The data set is described as follows: Acid-bypass uncoating assay (fusion at the plasma membrane). It is filed as cell-based, Influenza A X31 virus strain (H3N2). The settings on record: for block of uncoating by type II myosin inhibitors: after acid-bypass at the PM (context); for uncoating blocked/decreased by % following PM bypass: percent reduction of uncoating.

Data set [2] relates to X31 strain of IAV. The data set is described as follows: Uncoating after endocytosis and fusion at LEs (ammonium chloride block and washout, drugs added 60 min post-uptake). It is filed as cell-based, Influenza A X31 virus strain (H3N2). The settings on record: drug added 60 min post-uptake, kept during 60 min uncoating.
In data set [3] the target is dynein.

Residues, ends and D or L forms follow the SMILES beside them. *: point of attachment. Cbz = O=C(OCc1ccccc1)*

As for `N#CC(=C(O)c1ccc(Cl)cc1Cl)c1nc2cc(Cl)ccc2c(=O)[nH]1` [ciliobrevin D], the “uncoating following acid-bypass at the PM, reduced to % of control” value in data set [1] (remaining uncoating relative to control, siRNA experiments in A549 cells) is given as 62%.

Turning to `CC(C)C[C@@H](C=O)NC(=O)[C@H](CC(C)C)NC(=O)[C@H](CC(C)C)NC(=O)OCc1ccccc1` [MG132] (Cbz-Leu-Leu-Leu-aldehyde), the “effect on uncoating when IAV fuses at the LEs” value in data set [2] is “no significant effect”.

In the case of `O=S(=O)(c1cccc2c(Cl)cccc12)N1CCCNCC1` [ML-9], the “block of uncoating by type II myosin inhibitors” value in data set [1] is listed as “more than half”.

For `Cc1ccc2c(c1)C(=O)C1(O)CCN(c3ccccc3)C1=N2` (stereo not drawn) [blebbistatin], the “block of uncoating by type II myosin inhibitors” value in data set [1] is “more than half”.

Consider `COC(=O)Nc1nc2ccc(C(=O)c3cccs3)cc2[nH]1` [nocodazole], for which the “uncoating blocked/decreased by % following PM bypass” value in data set [1] was found to be 35%.

Take `C=C1[C@@H](C)[C@H]2[C@H](Cc3ccccc3)NC(=O)[C@]23[C@H](OC(C)=O)/C=C/[C@@](C)(O)C(=O)[C@@H](C)C/C=C/[C@H]3[C@@H]1O` [cytochalasin D]: the “uncoating blocked/decreased by % following PM bypass” value in data set [1] is listed as 83%.

With `CC(Nc1nc(N2CCCC2)nc2ccccc12)c1ccccc1` (stereo not drawn) [importazole], the “effect on uncoating when IAV fuses at the LEs” value in data set [2] was “no significant effect”.

B1: HDAC6 (Dbm), mouse HDAC6 without the dynein-binding domain (del437-481), expressed in rescued HDAC6 KO MEFs (protein)
chain: MTSTGQDSSTRQRKSRHNPQSPLQESSATLKRGGKKCAVPHSSPNLAEVKKKGKMKKLSQPAEEDLVVGLQGLDLNPETRVPVGTGLVFDEQLNDFHCLWDDSFPESPERLHAIREQLILEGLLGRCVSFQARFAEKEELMLVHSLEYIDLMETTQYMNEGELRVLAETYDSVYLHPNSYSCACLATGSVLRLVDALMGAEIRNGMAVIRPPGHHAQHNLMDGYCMFNHLAVAARYAQKKHRIQRVLIVDWDVHHGQGTQFIFDQDPSVLYFSIHRYEHGRFWPHLKASNWSTIGFGQGQGYTINVPWNQTGMRDADYIAAFLHILLPVASEFQPQLVLVAAGFDALHGDPKGEMAATPAGFAHLTHLLMGLAGGKLILSLEGGYNLRALAKGVSASLHTLLGDPCPMLESCVVPCASAQTSIYCTLEALEPFWEVLVYDEKMMSHCNLWDNHHPETPQRILRIMCHLEEVGLAARCLILPARPALDSELLTCHSAEYVEHLRTTEKMKTRDLHREGANFDSIYICPSTFACAKLATGAACRLVEAVLSGEVLNGIAVVRPPGHHAEPNAACGFCFFNSVAVAARHAQIIAGRALRILIVDWDVHHGNGTQHIFEDDPSVLYVSLHRYDRGTFFPMGDEGASSQVGRDAGIGFTVNVPWNGPRMGDADYLAAWHRLVLPIAYEFNPELVLISAGFDAAQGDPLGGCQVTPEGYAHLTHLLMGLAGGRIILILEGGYNLASISESMAACTHSLLGDPPPQLTLLRPPQSGALVSISEVIQVHRKYWRSLRLMKMEDKEECSSSRLVIKKLPPTASPVSAKEMTTPKGKVPEESVRKTIAALPGKESTLGQAKSKMAKAVLAQGQSSEQAAKGTTLDLATSKETVGGATTDLWASAAAPENFPNQTTSVEALGETEPTPPASHTNKQTTGASPLQGVTAQQSLQLGVLSTLELSREAEEAHDSEEGLLGEAAGGQDMNSLMLTQGFGDFNTQDVFYAVTPLSWCPHLMAVCPIPAAGLDVSQPCKTCGTVQENWVCLTCYQVYCSRYVNAHMVCHHEASEHPLVLSCVDLSTWCYVCQAYVHHEDLQDVKNAAHQNKFGEDMPHSH
Consider B1, for which, in data set [3], the “uncoating using PM bypass, relative to WT MEFs” value is reported as “uncoating in the HDAC6 (Db^m) cells was reduced to 58%% of WT MEFs” and the “uncoating when the virus was allowed to fuse at LEs, compared to WT MEFs” value is listed as “uncoating was reduced to 67% in HDAC6 (Db^m) cells compared to WT MEFs”.

The values are drawn from patent US20170137824A1, “NEW TREATMENT AGAINST INFLUENZA VIRUS” (priority 2014, published 2017).
